Results on four compounds are retold here after patent US20070142431A1, “Quinoline 4-carboxamide derivatives and their use as neurokinin 3 (nk-3) receptor antagonists” (SmithKline Beecham Corporation, priority 2003, published 2007).

The target in data set [1] is T1, NK3 receptor (Homo sapiens, UniProt P29371).
T1 construct: expressed in transfected cells; host or cells: CHO cell line, plasma membrane preparation
T1 sequence (P29371 1-465): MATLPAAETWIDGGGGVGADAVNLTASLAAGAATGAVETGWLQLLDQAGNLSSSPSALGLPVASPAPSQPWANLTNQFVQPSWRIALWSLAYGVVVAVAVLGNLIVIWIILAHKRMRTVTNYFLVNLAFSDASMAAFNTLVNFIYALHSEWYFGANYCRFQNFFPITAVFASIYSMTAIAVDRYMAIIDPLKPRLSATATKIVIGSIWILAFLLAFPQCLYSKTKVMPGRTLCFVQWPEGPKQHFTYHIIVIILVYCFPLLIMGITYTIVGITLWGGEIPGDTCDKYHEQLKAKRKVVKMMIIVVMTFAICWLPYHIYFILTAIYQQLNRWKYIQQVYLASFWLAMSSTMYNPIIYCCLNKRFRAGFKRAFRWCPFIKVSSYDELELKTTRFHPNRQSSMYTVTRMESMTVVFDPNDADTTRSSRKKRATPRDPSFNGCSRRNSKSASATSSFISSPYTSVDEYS
The data set is described as follows: NK binding affinity, scintillation proximity assay (SPA), 125I [MePhe7]-NKB. Particulars: plasma membrane from CHO cell lines expressing NK3, read-out: NK3 pKi (converted). How it is done:
(§1) The NK binding affinity of the compounds of the invention was determined using the following scintillation proximity assay (SPA) (see H. M. Sarau et al, J. Pharmacol. Experimental Therapeutics 1997, 281(3), 1303-1311; H. M. Sarau et al, J. Pharmacol. Experimental Therapeutics 2000, 295(1), 373-381; G. A. M. Giardina et al J.Med.Chem 1999, 42, 1053-1065). ^125I Substance P, ^125I NKA and ^125I [MePhe7]-NKB were used in the binding SPA of NK1, NK2 and NK3 receptor, respectively. Polystrene Leadseeker WGA-SPA beads (Amersham Biosciences) were mixed with plasma membrane prepared from CHO cell lines expressing NK1, NK2 or NK3 in a bead/membrane ratio of 20:1 (w/w) in assay buffer (75 mM Tris pH 7.8, 75 mM NaCl, 4 mM MnCl2, 1 mM EDTA, 0.05% Chaps, 1 mM PMSF). The mixture was placed on ice for 30 minutes to allow the formation of membrane/bead complex before BSA was added to a final concentration of 1%. After another 30 minutes incubation on ice, the bead/membrane complex was washed twice and suspended in assay buffer. ^125I-labelled ligands were then added to the bead/membrane complex. 30 μl of the resulting mixture was then dispensed into each well of a Nalgen NUNC 384-well plate with 1 μl compound pre-dispensed in 50% DMSO. The plates were then sealed and pulse spun at 1100 rpm. After 3 hours incubation at room temperature with shaking, the plates were spun for 2 min at 1100 rpm and measured in Viewlux imager (PerkinElmer) for 5 minutes with a 618-nm filter. Inhibition of radioactive ligand binding to its respective receptor was measured by the reduction of signal. pKi was calculated using Kd of each radioactive ligand determined in a separate experiment.

The target in data set [2] is T2, NK2 receptor (Homo sapiens, UniProt P21452).
T2 construct: expressed in transfected cells; host or cells: CHO cell line, plasma membrane preparation
T2 sequence (P21452 1-398): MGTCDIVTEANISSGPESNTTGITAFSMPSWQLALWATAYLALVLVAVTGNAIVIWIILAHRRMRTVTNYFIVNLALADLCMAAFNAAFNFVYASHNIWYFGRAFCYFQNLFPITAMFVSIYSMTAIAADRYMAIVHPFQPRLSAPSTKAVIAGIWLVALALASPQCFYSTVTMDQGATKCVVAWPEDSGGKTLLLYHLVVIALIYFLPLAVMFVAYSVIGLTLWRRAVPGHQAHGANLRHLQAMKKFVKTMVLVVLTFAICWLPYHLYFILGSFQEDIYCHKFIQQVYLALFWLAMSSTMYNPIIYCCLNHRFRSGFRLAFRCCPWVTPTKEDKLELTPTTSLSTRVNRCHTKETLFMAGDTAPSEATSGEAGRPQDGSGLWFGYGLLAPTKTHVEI
Description: NK binding affinity, scintillation proximity assay (SPA), 125I NKA. Particulars: plasma membrane from CHO cell lines expressing NK2, read-out: NK2 pKi (converted). How it is done:
as §1
For orientation: Scintillation proximity formats need no separation of bound from free tracer.

Data set [3] has as its target T3, NK1 receptor (Homo sapiens, UniProt P25103).
T3 construct: expressed in transfected cells; host or cells: CHO cell line, plasma membrane preparation
Description: NK binding affinity, scintillation proximity assay (SPA), 125I Substance P. Particulars: plasma membrane from CHO cell lines expressing NK1, read-out: NK1 pKi (converted). How it is done: as §1

The nature of data set [4]: Measurement of brain exposure. Particulars: rats, orally dosed 3 mg/kg as 1% methylcellulose suspension; brain homogenate concentration vs time over 12 hr. It is filed as in vivo. The protocol:
Compounds of the invention were orally dosed (3 mg/kg) to rats as 1% methylcellulose (w/v) suspensions. The rats were sacrificed after set time intervals and the concentration of the compound of the invention in brain homogenate was determined by protein precipitation followed by LC-MS-MS analysis of the extracts against standards prepared in brain homogenate. A graph of brain concentration against time was plotted over a 12 hr period. The area under the curve (AUC, units=hours.ng/g brain) was taken as a measure of brain exposure.

T3 sequence (P25103 whole entry): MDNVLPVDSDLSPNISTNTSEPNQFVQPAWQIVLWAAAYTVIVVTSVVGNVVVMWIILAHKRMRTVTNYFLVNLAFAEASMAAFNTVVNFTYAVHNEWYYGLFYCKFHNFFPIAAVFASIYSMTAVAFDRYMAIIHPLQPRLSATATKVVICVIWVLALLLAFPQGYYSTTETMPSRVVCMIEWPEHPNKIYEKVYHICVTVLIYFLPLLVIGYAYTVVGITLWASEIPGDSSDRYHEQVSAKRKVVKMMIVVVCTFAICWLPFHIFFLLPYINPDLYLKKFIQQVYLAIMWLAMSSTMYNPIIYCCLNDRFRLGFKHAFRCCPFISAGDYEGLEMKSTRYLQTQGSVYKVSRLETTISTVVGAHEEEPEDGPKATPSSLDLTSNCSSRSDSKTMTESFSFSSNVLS

As to `O=C(N[C@H](c1ccccc1)C1CC1)c1c(Cn2nccn2)c(-c2cccc(F)c2)nc2ccccc12` [Example 1, 2-(3-Fluoro-phenyl)-3-[1,2,3]triazol-2-ylmethyl-quinoline4-carboxylic acid ((S)-1-cyclopropyl-1-phenyl-methyl)-amide], the results for the Ki in data set [1], in data set [2] and in data set [3] were 10 nM, 316 nM and 1000 nM, respectively. Also, in data set [4], the “Brain Exposure (AUC, h · ng/g brain)” value is on record as 1896 h · ng/g brain.

Turning to `O=C(N[C@H](c1cccc(F)c1)C1CC1)c1c(Cn2ncnn2)c(-c2ccccc2)nc2ccccc12` [Example 35, 2-Phenyl-3-tetrazol-2-ylmethyl-quinoline-4-carboxylic acid [(S)-1-cyclopropyl-1-(3-fluoro-phenyl)-methyl]-amide], the values for the Ki in data set [1], in data set [2] and in data set [3] were 3.98 nM, 251 nM and 1260 nM, respectively. In data set [4], the “Brain Exposure (AUC, h · ng/g brain)” value turned out to be 2361 h · ng/g brain.

Take `O=C(N[C@H](c1cccc(F)c1)C1CC1)c1c(Cn2nccn2)c(-c2ccccc2)nc2ccccc12` [Example 37, 2-Phenyl-3-[1,2,3]triazol-2-ylmethyl-quinoline-4-carboxylic acid [(S)-1-cyclopropyl-1-(3-fluoro-phenyl)-methyl]-amide]: the Ki was 2.51 nM in data set [1], 158 nM in data set [2] and 631 nM in data set [3]. In addition, the “Brain Exposure (AUC, h · ng/g brain)” value in data set [4] turned out to be 2091 h · ng/g brain.

`O=C(N[C@H](c1ccccc1)C1CC1)c1c(Cn2ncnn2)c(-c2cccc(F)c2)nc2ccccc12` [Example 45, 2-(3-Fluoro-phenyl)-3-tetrazol-2-ylmethyl-quinoline-4-carboxylic acid ((S)-1-cyclopropyl-1-phenyl-methyl)-amide]: the Ki in data set [1] is 10 nM; in data set [2], 251 nM; in data set [3] it was 1260 nM. Moreover, the “Brain Exposure (AUC, h · ng/g brain)” value in data set [4] is reported as 1900 h · ng/g brain.
